The values that follow are results of earlier work, collected in patent US20110190221A1, “MODULATION AND REPLETION/ENHANCEMENT OF THE COMPLEMENT SYSTEM FOR TREATMENT OF TRAUMA” (APELLIS AG, priority 2008, published 2011).

The data set relates to complement activation. The following applies: relative to compstatin amidated at the C-terminus; based on published data (WO2004/026328, Mallik 2005, Katragadda 2006).

As to ICVVQDWGHHRCT [Ac-compstatin], the Activity over compstatin was 3 × more.
